Experimental data as given in BindingDB's records for patent US10245267 (Novartis, 2019).

Molecular target: Serine/threonine-protein kinase B-raf [V600E] (Homo sapiens, UniProt P15056, V600E)
Test: In Vitro Raf Activity

Sequence of Serine/threonine-protein kinase B-raf [V600E] (P15056 2-766 V600E limits assumed): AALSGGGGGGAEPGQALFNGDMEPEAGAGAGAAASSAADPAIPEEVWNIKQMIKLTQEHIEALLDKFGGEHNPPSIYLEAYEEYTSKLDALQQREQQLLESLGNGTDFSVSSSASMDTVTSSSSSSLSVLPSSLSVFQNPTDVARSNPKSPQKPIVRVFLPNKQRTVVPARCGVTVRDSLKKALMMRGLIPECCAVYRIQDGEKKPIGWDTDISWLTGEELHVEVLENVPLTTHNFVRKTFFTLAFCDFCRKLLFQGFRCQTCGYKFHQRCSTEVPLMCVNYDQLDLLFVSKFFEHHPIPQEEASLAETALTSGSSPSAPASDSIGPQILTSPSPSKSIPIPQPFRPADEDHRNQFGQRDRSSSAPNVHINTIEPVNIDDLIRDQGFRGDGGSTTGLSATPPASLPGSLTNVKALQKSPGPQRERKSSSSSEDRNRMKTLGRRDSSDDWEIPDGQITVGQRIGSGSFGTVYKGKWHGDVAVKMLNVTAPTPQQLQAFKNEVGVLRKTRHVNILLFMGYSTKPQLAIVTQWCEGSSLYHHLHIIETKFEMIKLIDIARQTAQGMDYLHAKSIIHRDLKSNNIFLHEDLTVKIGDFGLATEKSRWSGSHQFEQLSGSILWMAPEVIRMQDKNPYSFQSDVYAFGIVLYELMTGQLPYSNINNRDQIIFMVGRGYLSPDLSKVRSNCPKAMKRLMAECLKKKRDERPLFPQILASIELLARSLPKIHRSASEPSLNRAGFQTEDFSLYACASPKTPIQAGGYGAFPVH

Row | SMILES | IC50
1 | Cc1ncc(NC(=O)c2ccnc(C(C)(C)C#N)c2)cc1-c1cc(N2CCOCC2)ncn1 [US10245267, Example 2] | 4.8 nM
2 | Cc1ncc(NC(=O)c2ccnc(C(F)(F)F)c2)cc1-c1cnc(OC2CNC2)c(N2CCOCC2)c1 [US10245267, Example 325] | 300 nM
3 | Cc1ncc(NC(=O)c2ccnc(C(F)(F)F)c2)cc1-c1cnc(C(C)(C)C#N)c(N2CCOCC2)c1 [US10245267, Example 326] | 3.7 nM
4 | CCOc1nnc(-c2cc(NC(=O)c3ccc(CN(C)CC)c(C(F)(F)F)c3)ccc2C)cc1N1CCOCC1 [US10245267, Example 576] | 3.5 nM
5 | Cc1ncc(NC(=O)c2ccnc(C(C)(C)C#N)c2)cc1-c1cc(N2CCOCC2)c2nccn2n1 [US10245267, Example 881] | 32.6 nM

More lines, in order of falling IC50, values ahead:

Row | IC50 | SMILES
6 | 6.5 nM | Cc1ncc(NC(=O)c2ccc(C#N)c(C(F)(F)F)c2)cc1-c1cc(N2CCOCC2)c2nccn2n1 [US10245267, Example 877]
7 | 3.9 nM | Cc1ncc(NC(=O)c2ccnc(C(F)(F)F)c2)cc1-c1cnc(CS(C)(=O)=O)c(N2CCOCC2)c1 [US10245267, Example 327]
8 | 3.2 nM | Cc1ncc(NC(=O)c2cccc(C(F)F)c2)cc1-c1cc(N2CCOCC2)c2nccn2n1 [US10245267, Example 880]
